Reference: US20190343908A1, “Therapeutic Combination for the Treatment of Cancer” (Nerium Biotechnology Inc., priority 2011, published 2019)

Tests used:
[1] = tested on: A375 melanoma cancer cell line; experiment: Sulforhodamine B viability assay, A375; type: cell-based, human; details: for ABSORBANCE: 0.1 μg/mL cisplatin; for Average absorbance, SRB 24 h / Average absorbance, SRB 48 h / Average absorbance, SRB 72 h: A375 Run 1
From the text: (§1) Three different viability assays were chosen to complement each other and yielded results dependent on concentration and cell line: the Methyl Tetrazolium dye assay, the Sulforhodamine B fluorescent dye assay, and the Crystal Violet dye assay.
The Sulforhodamine B and Crystal Violet assays provide information about protein and were used to complement the Methyl-Tetrazolium dye assay. […] It is used for the quantification of cellular proteins of cultured cells. The assay using Crystal Violet, a dye that binds electrostatically to proteins and stains DNA, provides a reliable, simple assay for measuring viability of cells.
(§2) The Methyl Tetrazolium, Sulforhodamine B, and Crystal Violet assays were used to assess cell viabilities. The incubation times were 24 hours, 48 hours, and 72 hours. The Nerium oleander extract Anvirzel™ (a hot water extract of oleander obtained from Salud Integral, Honduras) was tested in concentrations ranging from 0.01 ng/mL to 10 ng/mL.
(§3) Cells were detached by trypsinization (Trypsin-0.25% EDTA, Invitrogen, 25200-072) during the logarithmic phase of culture growth and plated in 96-well plates (18.000 cells/well) (Corning, Costar 359) in a final volume of 200 μl of medium per well. […] The absorbance was measured after 24 hours, 48 hours, and 72 hours of incubation.
For the Sulforhodamine B assay, 96-well plates were fixed by 10% trichloroacetic acid (Fluka, 91228) and were incubated at 4° C. for 1 hour. Afterwards, plates were rinsed with water and cells were stained with 0.4% Sulforhodamine B (Sigma, 341738), dissolved in 1% acetic acid (Carlo Ebra, 401422) for 15 minutes at room temperature (RT). The unbound stain was washed twice with 1% acetic acid. Finally, 10 mM Tris Buffer pH 10.5 (Sigma, T6791) was added to dissolve the dye.
(§4) The optical density of each plate was measured on a μQuant spectrophotometer and the data were analyzed with Gen5 software (μQuant Biomolecular Spectrophotometer MQX200 and Gen5™ Microplate Data Collection & Analysis software, BioTek® Instruments. Inc, April 2008). Absorbance was measured at 570 nm for all assays and a second wavelength was measured in order to subtract noise. For the Methyl-Tetrazolium assay this second wavelength was 630 nm and for the Sulforhodamine B and Crystal Violet assays it was 690 nm.

[2] = tested on: MDA-MB 231 (human breast cancer); experiment: Methyl-Tetrazolium viability assay, MDA-MB 231; type: cell-based; details: for MTT 24 h / MTT 48 h / MTT 72 h: Run 3 average
From the text: as §1
The Methyl-Tetrazolium dye assay measures the activity of enzymes in mitochondria. The dye precursor is taken up by cells, where it undergoes reduction to the purple formazan. It measures only the mitochondrial activity and, thus, it is not always a reliable indication of whether the cells themselves are alive or dead, since even a recently dead cell has […] enzyme activity in mitochondria. Intracellular glucose concentration, pH, and time before assay all affect the measurements.
as §2, §3
For the Methyl-Tetrazolium assay, the dye (Sigma, M2128; 5 mg/mL, diluted in phosphate-buffered saline) was added to each well and plates were incubated for 3 hours at 37° C. After the end of the incubation period, the medium was discarded and the cells were rinsed with phosphate-buffered saline. Finally, the formazan crystals were dissolved in dimethylsulphoxide (Sigma, D4540).
as §4

N.N.[Cl][Pt][Cl] [cisplatin]
ABSORBANCE ([1]; A375, 48 h): 2.421 | ABSORBANCE ([1]; A375, 72 h): 2.487 | Average absorbance, SRB 24 h ([1]; 0.1 μg/ml CDDP): 2.072 | Average absorbance, SRB 48 h ([1]; 0.1 μg/ml CDDP): 2.421 | Average absorbance, SRB 72 h ([1]; 0.1 μg/ml CDDP): 2.487 | Average absorbance, SRB 24 h ([1]; 1 μg/ml CDDP): 1.579 | Average absorbance, SRB 48 h ([1]; 1 μg/ml CDDP): 1.987 | Average absorbance, SRB 72 h ([1]; 1 μg/ml CDDP): 2.256 | Average absorbance, SRB 24 h ([1]; 10 μg/ml CDDP): 1.117 | Average absorbance, SRB 48 h ([1]; 10 μg/ml CDDP): 1.678 | Average absorbance, SRB 72 h ([1]; 10 μg/ml CDDP): 1.913 | Average absorbance, SRB 24 h ([1]; 100 μg/ml CDDP): 1.283 | Average absorbance, SRB 48 h ([1]; 100 μg/ml CDDP): 1.782 | Average absorbance, SRB 72 h ([1]; 100 μg/ml CDDP): 1.319 | Average absorbance SRB ([1]; A375 Run 2, 24 h, 0.1 μg/ml CDDP): 2.189 | Average absorbance SRB ([1]; A375 Run 2, 24 h, 1 μg/ml CDDP): 1.916 | Average absorbance SRB ([1]; A375 Run 2, 24 h, 10 μg/ml CDDP): 1.827 | Average absorbance SRB ([1]; A375 Run 2, 24 h, 100 μg/ml CDDP): 1.939 | Average absorbance SRB ([1]; A375 Run 2, 48 h, 0.1 μg/ml CDDP): 2.571 | Average absorbance SRB ([1]; A375 Run 2, 48 h, 1 μg/ml CDDP): 1.366 | Average absorbance SRB ([1]; A375 Run 2, 48 h, 10 μg/ml CDDP): 1.265 | Average absorbance SRB ([1]; A375 Run 2, 48 h, 100 μg/ml CDDP): 1.293 | Average absorbance SRB ([1]; A375 Run 2, 72 h, 0.1 μg/ml CDDP): 2.634 | Average absorbance SRB ([1]; A375 Run 2, 72 h, 1 μg/ml CDDP): 2.085 | Average absorbance SRB ([1]; A375 Run 2, 72 h, 10 μg/ml CDDP): 1.617 | Average absorbance SRB ([1]; A375 Run 2, 72 h, 100 μg/ml CDDP): 1.491 | Average absorbance SRB ([1]; A375 Run 3, 24 h, 0.1 μg/ml CDDP): 1.597 | Average absorbance SRB ([1]; A375 Run 3, 24 h, 1 μg/ml CDDP): 1.126 | Average absorbance SRB ([1]; A375 Run 3, 24 h, 10 μg/ml CDDP): 1.294 | Average absorbance SRB ([1]; A375 Run 3, 24 h, 100 μg/ml CDDP): 0.982 | Average absorbance SRB ([1]; A375 Run 3, 48 h, 0.1 μg/ml CDDP): 2.175 | Average absorbance SRB ([1]; A375 Run 3, 48 h, 1 μg/ml CDDP): 1.83 | Average absorbance SRB ([1]; A375 Run 3, 48 h, 10 μg/ml CDDP): 1.586 | Average absorbance SRB ([1]; A375 Run 3, 48 h, 100 μg/ml CDDP): 1.572 | Average absorbance SRB ([1]; A375 Run 3, 72 h, 0.1 μg/ml CDDP): 2.184 | Average absorbance SRB ([1]; A375 Run 3, 72 h, 1 μg/ml CDDP): 1.491 | Average absorbance SRB ([1]; A375 Run 3, 72 h, 10 μg/ml CDDP): 1.571 | Average absorbance SRB ([1]; A375 Run 3, 72 h, 100 μg/ml CDDP): 1.271 | MTT 24 h Average ([2]; Run 1, 0.1 μg/ml CDDP): 0.019 | MTT 48 h Average ([2]; Run 1, 0.1 μg/ml CDDP): 0.002 | MTT 72 h Average ([2]; Run 1, 0.1 μg/ml CDDP): 0.04 | MTT 24 h Average ([2]; Run 1, 1 μg/ml CDDP): 0.007 | MTT 48 h Average ([2]; Run 1, 1 μg/ml CDDP): 0.004 | MTT 72 h Average ([2]; Run 1, 1 μg/ml CDDP): 0.006 | MTT 24 h Average ([2]; Run 1, 10 μg/ml CDDP): 0.015 | MTT 48 h Average ([2]; Run 1, 10 μg/ml CDDP): 0.007 | MTT 72 h Average ([2]; Run 1, 10 μg/ml CDDP): 0.015 | MTT 24 h Average ([2]; Run 1, 100 μg/ml CDDP): 0.008 | MTT 48 h Average ([2]; Run 1, 100 μg/ml CDDP): 0.008 | MTT 72 h Average ([2]; Run 1, 100 μg/ml CDDP): 0.006 | MTT 24 h Average ([2]; Run 2, 0.1 μg/ml CDDP): 0.044 | MTT 48 h Average ([2]; Run 2, 0.1 μg/ml CDDP): 0.063 | MTT 72 h Average ([2]; Run 2, 0.1 μg/ml CDDP): 0.106 | MTT 24 h Average ([2]; Run 2, 1 μg/ml CDDP): 0.009 | MTT 48 h Average ([2]; Run 2, 1 μg/ml CDDP): 0.007 | MTT 72 h Average ([2]; Run 2, 1 μg/ml CDDP): 0.005 | MTT 24 h Average ([2]; Run 2, 10 μg/ml CDDP): 0.039 | MTT 48 h Average ([2]; Run 2, 10 μg/ml CDDP): 0.049 | MTT 72 h Average ([2]; Run 2, 10 μg/ml CDDP): 0.07 | MTT 24 h Average ([2]; Run 2, 100 μg/ml CDDP): 0.008 | MTT 48 h Average ([2]; Run 2, 100 μg/ml CDDP): 0.006 | MTT 72 h Average ([2]; Run 2, 100 μg/ml CDDP): 0.002 | MTT 24 h ([2]; 0.1 μg/ml CDDP): 0.083 | MTT 48 h ([2]; 0.1 μg/ml CDDP): 0.035 | MTT 72 h ([2]; 0.1 μg/ml CDDP): 0.046 | MTT 24 h ([2]; 1 μg/ml CDDP): 0.013 | MTT 48 h ([2]; 1 μg/ml CDDP): 0.008 | MTT 72 h ([2]; 1 μg/ml CDDP): 0.008 | MTT 24 h ([2]; 10 μg/ml CDDP): 0.046 | MTT 48 h ([2]; 10 μg/ml CDDP): 0.057 | MTT 72 h ([2]; 10 μg/ml CDDP): 0.068 | MTT 24 h ([2]; 100 μg/ml CDDP): 0.012 | MTT 48 h ([2]; 100 μg/ml CDDP): 0.012 | MTT 72 h ([2]; 100 μg/ml CDDP): 0.01
